Reference: patent US20230123585A1, “COMPOSITIONS AND METHODS FOR TREATING OR PREVENTING CANCER USING DEUBIQUITINASE INHIBITORS” (The University of Chicago, priority 2020, published 2023)

How the values were obtained:
[1] = tested on: METTL3 / m^6A methyltransferase complex in A375 cells; test: Immunoblot of METTL3 / m^6A methyltransferase complex protein in A375 cell lysates; format: cell-based, human
Procedure: FIGS. 6A-6H: Phosphorylation of the m^6A Methyltransferase Complex May Affect Tumorigenesis. (A) Lysates of A375 stable transfectants harvested at different time points after treatment with cycloheximide (CHX) 10 μg/ml were analyzed by immunoblot. (B) LC-MS/MS quantification of the m^6A/A ratio in mRNA of A375 stable transfectants. (C) After 8 h treatment with 10 μM PD0325901 or 0.1 μM tramentib, cell lysates from A375 cells were analyzed by immunoblot. (D) LC-MS/MS quantification of the m^6A/A ratio in mRNA of A375 cells treated with 10 μM PD0325901 or 0.1 μM tramentib for 48 h. (E) After 8hr treatment with 10 μM EOAI3402143 (EOAI) or 30 μM vialinin A , cell lysates from A375 cells were analyzed by immunoblot. (F) A375 stable transfectants as indicated were treated with 3 μM EOAI3402143 (EOAI) or 10 μM vialinin A before measuring cell viability by SRB assay. Data are presented as relative to the R-WT cells without drug treatment (n=3 per group, data represent mean±SEM). (G) Immunofluorescence analysis of METTL3 (green) in SKBR3 cells treated with 1 μM tucatinib and 1 μM lapatinib for 8 hr. DAPI (blue) was used to mark the nucleus. (H) LC-MS/MS quantification of the m^6A/A ratio in mRNA of SKBR3 and BT474 cells treated with 1 μM tucatinib and 1 μM lapatinib for 48 h. (See also FIG. 14.)
FIGS. 11A-11G: USP5 is Required for ERK-Mediated METTL3 Stabilization. (A) A375 cells transfected with HA-ubiquitin (ub) were treated with 10 μM MG-132 and MEK inhibitor PD0325901 for 8 h. The ubiquitination of METTL3 was detected by IP with anti-METTL3 and immunoblot with anti-HA. (B) After 8 h treatment with 10 μM PD0325901 with or without 10 μM MG-132, cell lysates from A375 cells were analyzed by immunoblot. (C) A375 cells were treated with various concentrations of PD0325901 for 1 h. Cell lysates were subjected to IP with METTL3 antibody followed by immunoblot. (D) 293T cells transfected as indicated were subjected to IP/immunoblot analysis. (E) Immunofluorescence analysis of myc-METTL3 (green) in mESC stable transfectants. DAPI (blue) was used to mark the nucleus. (F) Lysates of 293T cells transfected as indicated were subjected to IP with anti-Flag antibody followed by immunoblot. (G) Immunofluorescence analysis of 293T cells co-transfected with myc-METTL3 (green), Flag-USP5 (red) with or without constitutively active B-RAF.
Immunoprecipitation, immunoblotting, and in vitro kinase assay. Immunoprecipitation (IP) and immunoblotting (IB) were performed as previously described (Sun et al., 2016). In brief, protein samples were isolated from respective cells by lysis in RIPA buffer (1% Triton X-100, 150 mM NaCl, 20 mM Na2PO4, pH 7.4) containing Halt Protease and Phosphatase Inhibitor Cocktail (Thermo Scientific). Subsequently, a BCA assay (Thermo Scientific) was used to determine the protein concentrations. For IP, indicated antibody and protein A/G magnetic beads (Thermo Scientific) were incubated with lysate at 4° C. overnight followed by washing and elution with sample buffer. Equal amounts of protein were separated by SDS-PAGE followed by wet transfer to PVDF membranes. Blots were blocked with 5% non-fat milk or BSA and incubated with respective primary antibody at 4° C. overnight. Primary antibodies were detected by HRP-linked secondary antibodies (Cell Signaling) together with SuperSignal West Pico Plus chemiluminescent substrate (Thermo Scientific) and imaged in a FluorChem R system (ProteinSimple).

[2] = tested on: p-METTL3 (S43); test: p-METTL3 (S43) in A375 cells, IP with METTL3 antibody followed by immunoblot; format: cell-based, human; conditions: 1 h, 1 μM dabrafenib, 1 μM PLX-4720, 10 μM PD0325901, 0.1 μM trametinib
From the text: FIGS. 10A-10G: ERK Interacts and Phosphorylates METTL3 and WTAP. (A-C) Mass spectrometry detected S43, S50 and S525 phosphorylation in METTL3 in 293T cells co-transfected with B-RAF V600E. (D) Characterization of anti-p-METTL3 (S43) antibodies of 293T cells transfected as indicated with MEK S218D/S222D, HER2 V659E, B-RAF V600E and WT or non-phosphorylatable alanine mutant (3A) METTL3. (E) The METTL3 S43 phosphorylation was identified by in vitro kinase assays, in which purified METTL3-METTL14 were incubated with activated ERK2. (F) A375 cells were treated with 1 μM dabrafenib, 1 μM PLX-4720, 10 μM PD0325901, 0.1 μM tramentib for 1 h. Cell lysates were subjected to IP with METTL3 antibody followed by immunoblot. (G) Phos-tag SDS-PAGE showing the phosphorylation status of WT or non-phosphorylatable alanine mutants of mice WTAP in 293T cells co-transfected with B-RAF. 2A, T298A/S341A.
To investigate METTL3 phosphorylation by ERK inside cells, a polyclonal antibody was generated that targets S43-phosphorylated METTL3. This antibody recognizes S43-phosphorylated METTL3 but not a mutant form of METTL3, METTL3 3A, with all three phosphorylation serine sites replaced with alanine (FIG. 10D). This P-S43 antibody was then used as a tool to monitor METTL3 phosphorylation. […] Furthermore, the p-METTL3 (S43) in A375 cells, a human melanoma cell line with constitutively active ERK due to a B-RAF V600E mutation, was abrogated by treatments with B-RAF inhibitors (dabrafenib and PLX4720) or MEK inhibitors (PD0325901 and trametinib) (FIG. 10F), supporting that S43 phosphorylation on METTL3 is installed through the ERK pathway.
Immunoprecipitation, immunoblotting, and in vitro kinase assay. Immunoprecipitation (IP) and immunoblotting (IB) were performed as previously described (Sun et al., 2016). […] Primary antibodies were detected by HRP-linked secondary antibodies (Cell Signaling) together with SuperSignal West Pico Plus chemiluminescent substrate (Thermo Scientific) and imaged in a FluorChem R system (ProteinSimple).

`O=C(NOC[C@H](O)CO)c1ccc(F)c(F)c1Nc1ccc(I)cc1F` [PD0325901] was tested, and the “degradation of METTL3” value ([1]; A375 cells, 10 μM PD0325901, 8 h) was “increased”, the “protein levels of the m^6A methyltransferase complex” value ([1]; A375 melanoma cells, 8 h, 10 μM PD0325901 or 0.1 μM trametinib) was “reduce” and the “p-METTL3 (S43)” value [2] was “abrogated”.
